Data as given in US9630922B2, “3-spiro-7-hydroxamic acid tetralins as HDAC inhibitors” (Forma Therapeutics, Inc., priority 2015, dated 2017).

Target: T1, HDAC6 (Homo sapiens, UniProt Q9UBN7)
T1 construct: Full length human recombinant HDAC6 protein was expressed in baculoviral system; made in house; host or cells: baculoviral system
T1 sequence (Q9UBN7 1-1215): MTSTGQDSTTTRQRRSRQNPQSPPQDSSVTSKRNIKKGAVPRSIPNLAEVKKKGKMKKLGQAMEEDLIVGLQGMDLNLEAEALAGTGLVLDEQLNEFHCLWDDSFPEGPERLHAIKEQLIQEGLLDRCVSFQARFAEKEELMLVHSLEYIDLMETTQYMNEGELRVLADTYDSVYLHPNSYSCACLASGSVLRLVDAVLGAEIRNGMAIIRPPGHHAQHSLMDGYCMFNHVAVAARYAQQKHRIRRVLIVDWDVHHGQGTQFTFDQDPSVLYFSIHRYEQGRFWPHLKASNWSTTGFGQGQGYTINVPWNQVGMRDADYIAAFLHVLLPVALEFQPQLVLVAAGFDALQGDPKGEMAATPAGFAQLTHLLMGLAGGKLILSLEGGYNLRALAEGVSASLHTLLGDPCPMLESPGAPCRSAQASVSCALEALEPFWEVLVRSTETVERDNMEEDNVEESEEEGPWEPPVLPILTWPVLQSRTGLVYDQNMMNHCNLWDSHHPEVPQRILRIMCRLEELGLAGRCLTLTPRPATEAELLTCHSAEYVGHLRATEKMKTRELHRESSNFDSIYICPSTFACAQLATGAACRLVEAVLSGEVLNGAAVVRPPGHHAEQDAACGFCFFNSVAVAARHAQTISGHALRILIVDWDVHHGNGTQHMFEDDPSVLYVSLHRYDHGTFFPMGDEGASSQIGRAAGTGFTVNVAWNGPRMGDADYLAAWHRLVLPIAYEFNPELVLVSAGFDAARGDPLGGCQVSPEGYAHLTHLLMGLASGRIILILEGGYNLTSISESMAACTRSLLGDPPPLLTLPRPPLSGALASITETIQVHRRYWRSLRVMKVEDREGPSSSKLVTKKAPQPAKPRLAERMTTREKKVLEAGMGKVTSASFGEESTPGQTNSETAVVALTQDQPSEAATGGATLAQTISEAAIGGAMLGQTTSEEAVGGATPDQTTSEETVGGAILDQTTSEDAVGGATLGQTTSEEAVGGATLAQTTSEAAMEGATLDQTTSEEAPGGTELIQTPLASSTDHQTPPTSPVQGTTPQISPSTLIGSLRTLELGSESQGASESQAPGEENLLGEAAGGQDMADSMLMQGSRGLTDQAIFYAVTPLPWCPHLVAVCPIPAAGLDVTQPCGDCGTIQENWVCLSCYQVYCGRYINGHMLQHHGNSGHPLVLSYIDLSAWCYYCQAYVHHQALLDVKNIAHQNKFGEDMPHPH
Assay: In vitro Histone Deacetylase Assay (enzymatic HDAC6 electrophoretic mobility shift assay)
Type: biochemical
Conditions: full length human recombinant HDAC6, 1 nM enzyme, 2 μM peptide substrate RHKK(Ac)-NH2, 25° C.; read-out: HDAC6 activity range
Procedure, shortened: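 Full-length recombinant human HDAC6 (baculovirus-expressed, 1 nM) was incubated at 25 °C with 2 μM fluorescent RHKK(Ac)-NH2 peptide in HEPES pH 7.5, KCl, BSA, Triton X-100 and 1% DMSO, then SDS-quenched. Substrate and product were separated by microfluidic mobility shift, and IC50 came from 4-parameter fits of 12-point, 3-fold dilution curves.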

| Structure (SMILES) | IC50 |
| --- | --- |
| O=C(NO)c1ccc2c(c1)CC[C@@]1(CCN(Cc3ccc(OC(F)(F)F)cc3)C1=O)C2 [Compound I-80, (S)-N-hydroxy-2′-oxo-1′-(4-(trifluoromethoxy)benzyl)-3,4-dihydro-1H-spiro[naphthalene-2,3′-pyrrolidine]-6-carboxamide] | 0.1 to 0.5 µM |
| CC(C)(C)c1ccc(CN2CC[C@@]3(CCc4cc(C(=O)NO)ccc4C3)C2=O)cc1 [Compound I-85, (S)-1′-(4-(tert-butyl)benzyl)-N-hydroxy-2′-oxo-3,4-dihydro-1H-spiro[naphthalene-2,3′-pyrrolidine]-6-carboxamide] | 0.1 to 0.5 µM |
| CSc1cccc(N2CC[C@]3(CCc4cc(C(=O)NO)ccc4C3)C2=O)c1 [Compound I-92, (R)-N-hydroxy-1′-(3-(methylthio)phenyl)-2′-oxo-3,4-dihydro-1H-spiro[naphthalene-2,3′-pyrrolidine]-6-carboxamide] | ≤ 0.1 µM |
| CN(C)c1ccc(N2CC[C@]3(CCc4cc(C(=O)NO)ccc4C3)C2=O)cc1 [Compound I-93, (R)-1′-(4-(dimethylamino)phenyl)-N-hydroxy-2′-oxo-3,4-dihydro-1H-spiro[naphthalene-2,3′-pyrrolidine]-6-carboxamide] | ≤ 0.1 µM |
| CC(C)c1ccc(N2CC[C@]3(CCc4cc(C(=O)NO)ccc4C3)C2=O)cn1 [Compound I-94, (R)-N-hydroxy-1′-(6-isopropylpyridin-3-yl)-2′-oxo-3,4-dihydro-1H-spiro[naphthalene-2,3′-pyrrolidine]-6-carboxamide] | ≤ 0.1 µM |
| O=C(NO)c1ccc2c(c1)CC[C@]1(CCN(c3cnc4ccccc4c3)C1=O)C2 [Compound I-95, (R)-N-hydroxy-2′-oxo-1′-(quinolin-3-yl)-3,4-dihydro-1H-spiro[naphthalene-2,3′-pyrrolidine]-6-carboxamide] | ≤ 0.1 µM |
| O=C(NO)c1ccc2c(c1)CC[C@]1(CCN(c3cccc4c3OCC4)C1=O)C2 [Compound I-96, (R)-1′-(2,3-dihydrobenzofuran-7-yl)-N-hydroxy-2′-oxo-3,4-dihydro-1H-spiro[naphthalene-2,3′-pyrrolidine]-6-carboxamide] | ≤ 0.1 µM |
| CC(C)(C)Nc1cc(N2CC[C@]3(CCc4cc(C(=O)NO)ccc4C3)C2=O)ncn1 [Compound I-97, (R)-1′-(6-(tert-butylamino)pyrimidin-4-yl)-N-hydroxy-2′-oxo-3,4-dihydro-1H-spiro[naphthalene-2,3′-pyrrolidine]-6-carboxamide] | ≤ 0.1 µM |
| Cc1nn(C)cc1N1CC[C@]2(CCc3cc(C(=O)NO)ccc3C2)C1=O [Compound I-98, (R)-1′-(1,3-dimethyl-1H-pyrazol-4-yl)-N-hydroxy-2′-oxo-3,4-dihydro-1H-spiro[naphthalene-2,3′-pyrrolidine]-6-carboxamide] | ≤ 0.1 µM |
| O=C(NO)c1ccc2c(c1)CC[C@]1(CCN(c3ccc4nccn4c3)C1=O)C2 [Compound I-99, (R)-N-hydroxy-1′-(imidazo[1,2-a]pyridin-6-yl)-2′-oxo-3,4-dihydro-1H-spiro[naphthalene-2,3′-pyrrolidine]-6-carboxamide] | ≤ 0.1 µM |
| Cc1ccc(N2CC[C@@]3(CCc4cc(C(=O)NO)ccc4C3)C2=O)c(C)c1 [Compound I-100, (S)-1′-(2,4-dimethylphenyl)-N-hydroxy-2′-oxo-3,4-dihydro-1H-spiro[naphthalene-2,3′-pyrrolidine]-6-carboxamide] | ≤ 0.1 µM |
| CC(C)c1ccc(N2CC[C@@]3(CCc4cc(C(=O)NO)ccc4C3)C2=O)cn1 [Compound I-101, (S)-N-hydroxy-1′-(6-isopropylpyridin-3-yl)-2′-oxo-3,4-dihydro-1H-spiro[naphthalene-2,3′-pyrrolidine]-6-carboxamide] | ≤ 0.1 µM |
| O=C(NO)c1ccc2c(c1)CC[C@@]1(CCN(c3cnc4ccccc4c3)C1=O)C2 [Compound I-102, (S)-N-hydroxy-2′-oxo-1′-(quinolin-3-yl)-3,4-dihydro-1H-spiro[naphthalene-2,3′-pyrrolidine]-6-carboxamide] | ≤ 0.1 µM |
| CN1CC[C@]2(CCc3cc(C(=O)NO)ccc3C2)C1=O [Compound I-104, (R)-N-hydroxy-1′-methyl-2′-oxo-3,4-dihydro-1H-spiro[naphthalene-2,3′-pyrrolidine]-6-carboxamide] | ≤ 0.1 µM |
| CN1CC[C@@]2(CCc3cc(C(=O)NO)ccc3C2)C1=O [Compound I-105, (S)-N-hydroxy-1′-methyl-2′-oxo-3,4-dihydro-1H-spiro[naphthalene-2,3′-pyrrolidine]-6-carboxamide] | ≤ 0.1 µM |
| O=C(NO)c1ccc2c(c1)CC[C@]1(CCN(Cc3ccc(S(=O)(=O)C(F)(F)F)cc3)C1=O)C2 [Compound I-106, (R)-N-hydroxy-2′-oxo-1′-(4-((trifluoromethyl)sulfonyl)benzyl)-3,4-dihydro-1H-spiro[naphthalene-2,3′-pyrrolidine]-6-carboxamide] | ≤ 0.1 µM |

Now from value to compound:

| IC50 | Structure (SMILES) |
| --- | --- |
| ≤ 0.1 µM | O=C(NO)c1ccc2c(c1)CC[C@@]1(CCN(Cc3cccc(F)c3)C1=O)C2 [Compound I-79, (S)-1′-(3-fluorobenzyl)-N-hydroxy-2′-oxo-3,4-dihydro-1H-spiro[naphthalene-2,3′-pyrrolidine]-6-carboxamide] |
| ≤ 0.1 µM | O=C(NO)c1ccc2c(c1)CC[C@@]1(CCN(Cc3cccc(Cl)c3)C1=O)C2 [Compound I-81, (S)-1′-[(3-chlorophenyl)methyl]-N-hydroxy-2′-oxo-3,4-dihydro-1H-spiro[naphthalene-2,3′-pyrrolidine]-6-carboxamide] |
| ≤ 0.1 µM | O=C(NO)c1ccc2c(c1)CC[C@@]1(CCN(Cc3ccc(Cl)cc3)C1=O)C2 [Compound I-82, (S)-1′-(4-chlorobenzyl)-N-hydroxy-2′-oxo-3,4-dihydro-1H-spiro[naphthalene-2,3′-pyrrolidine]-6-carboxamide] |
| ≤ 0.1 µM | COc1ccc(CN2CC[C@@]3(CCc4cc(C(=O)NO)ccc4C3)C2=O)cc1 [Compound I-83, (S)-N-hydroxy-1′-(4-methoxybenzyl)-2′-oxo-3,4-dihydro-1H-spiro[naphthalene-2,3′-pyrrolidine]-6-carboxamide] |
| ≤ 0.1 µM | O=C(NO)c1ccc2c(c1)CC[C@@]1(CCN(Cc3ccccc3F)C1=O)C2 [Compound I-84, (S)-1′-(2-fluorobenzyl)-N-hydroxy-2′-oxo-3,4-dihydro-1H-spiro[naphthalene-2,3′-pyrrolidine]-6-carboxamide] |
| ≤ 0.1 µM | O=C(NO)c1ccc2c(c1)CC[C@@]1(CCN(Cc3ccc4ccccc4c3)C1=O)C2 [Compound I-86, (S)-N-hydroxy-1′-(naphthalen-2-ylmethyl)-2′-oxo-3,4-dihydro-1H-spiro[naphthalene-2,3′-pyrrolidine]-6-carboxamide] |
| ≤ 0.1 µM | O=C(NO)c1ccc2c(c1)CC[C@@]1(CCN(Cc3ccccc3OC(F)F)C1=O)C2 [Compound I-87, (S)-1′-(2-(difluoromethoxy)benzyl)-N-hydroxy-2′-oxo-3,4-dihydro-1H-spiro[naphthalene-2,3′-pyrrolidine]-6-carboxamide] |
| ≤ 0.1 µM | CS(=O)(=O)c1ccc(CN2CC[C@]3(CCc4cc(C(=O)NO)ccc4C3)C2=O)cc1 [Compound I-88, (R)-N-hydroxy-1′-(4-(methylsulfonyl)benzyl)-2′-oxo-3,4-dihydro-1H-spiro[naphthalene-2,3′-pyrrolidine]-6-carboxamide] |
| ≤ 0.1 µM | O=C(NO)c1ccc2c(c1)CC[C@]1(CCN(c3cccc4ccccc34)C1=O)C2 [Compound I-89, (R)-N-hydroxy-1′-(naphthalen-1-yl)-2′-oxo-3,4-dihydro-1H-spiro[naphthalene-2,3′-pyrrolidine]-6-carboxamide] |
| ≤ 0.1 µM | COc1ccc(N2CC[C@]3(CCc4cc(C(=O)NO)ccc4C3)C2=O)cc1F [Compound I-90, (R)-1′-(3-fluoro-4-methoxyphenyl)-N-hydroxy-2′-oxo-3,4-dihydro-1H-spiro[naphthalene-2,3′-pyrrolidine]-6-carboxamide] |
| ≤ 0.1 µM | O=C(NO)c1ccc2c(c1)CC[C@]1(CCN(c3ccc4c(c3)OCO4)C1=O)C2 [Compound I-91, (R)-1′-(benzo[d][1,3]dioxol-5-yl)-N-hydroxy-2′-oxo-3,4-dihydro-1H-spiro[naphthalene-2,3′-pyrrolidine]-6-carboxamide] |
